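Protocol summary: plate cells (96-well), add compound at 5 concentrations, incubate 48 h, interpolate endpoints linearly. Abbreviation: GI50, concentration required for 50% inhibition of growth.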 Calls of active or inactive are those of the source. No stated cut-off is given here; in the data, active = GI50 up to about 1.1 µM and inactive = higher.
Legend:
Assay in all cases: growth of human tumour cells (NCI), 48 h
[1] = system: UO-31
[2] = system: HL-60
[3] = system: M14
[4] = system: SW-620
[5] = system: Hs-578T
[6] = system: NCI-H522
[7] = system: NCI/ADR-RES
[8] = system: MDA-MB-435
[9] = system: OVCAR-5
[10] = system: ACHN
[11] = system: A549
[12] = system: IGROV-1
[13] = system: NCI-H23
[14] = system: T47D
[15] = system: HCC 2998
[16] = system: SN12C
[17] = system: KM12
[18] = system: SK-MEL-5
[19] = system: U-251
[20] = system: SF-295
[21] = system: RXF 393
[22] = system: EKVX
[23] = system: OVCAR-8
[24] = system: UACC-62
[25] = system: HOP-62
[26] = system: SK-MEL-2
[27] = system: NCI-H460
[28] = system: HCT-116
[29] = system: HT-29
[30] = system: MCF7
[31] = system: CCRF-CEM
[32] = system: COLO 205
[33] = system: SNB-19
[34] = system: NCI-H226
[35] = system: RPMI-8226
[36] = system: SR
[37] = system: K562
[38] = system: MDA-N
[39] = system: OVCAR-4
[40] = system: SF-268
[41] = system: DU-145
[42] = system: A498
[43] = system: HCT-15
[44] = system: MDA-MB-231
[45] = system: PC-3
[46] = system: Malme-3M
[47] = system: SK-OV-3
[48] = system: LOX IMVI
[49] = system: TK-10
[50] = system: UACC-257
[51] = system: CAKI-1
[52] = system: MOLT-4
[53] = system: BT-549
[54] = system: SNB-75
[55] = system: 786-0
[56] = system: OVCAR-3
[57] = system: SK-MEL-28
[58] = system: SF-539
[59] = system: HOP-92

Measured: GI50

CN1CCC/C1=C1\C(=O)c2cccn2C1=O
inactive: [1] > 100 µM | [2] > 100 µM | [3] > 100 µM | [4] > 100 µM | [5] > 100 µM | [6] > 100 µM | [7] > 100 µM | [8] > 100 µM | [9] > 100 µM | [10] > 100 µM | [11] > 100 µM | [12] > 100 µM | [13] > 100 µM | [14] > 100 µM | [15] > 100 µM | [16] > 100 µM | [17] > 100 µM | [18] > 100 µM | [19] > 100 µM | [20] > 100 µM | [21] > 100 µM | [22] > 100 µM | [23] > 100 µM | [24] > 100 µM | [25] > 100 µM | [26] > 100 µM | [27] > 100 µM | [28] > 100 µM | [29] > 100 µM | [30] > 100 µM | [31] > 100 µM | [32] > 100 µM | [33] > 100 µM | [34] > 100 µM | [35] > 100 µM | [36] > 100 µM | [37] > 100 µM | [38] > 100 µM | [39] > 100 µM | [40] > 100 µM | [41] > 100 µM | [42] > 100 µM | [44] > 100 µM | [45] > 100 µM | [46] > 100 µM | [47] > 100 µM | [48] > 100 µM | [49] > 100 µM | [50] > 100 µM | [51] > 100 µM | [52] > 100 µM | [53] > 100 µM | [54] > 100 µM | [55] > 100 µM | [56] > 100 µM | [57] > 100 µM
> 100 µM: [43]

CC(C)(C)OC(=O)NCC(c1c[nH]c2cc(Br)ccc12)c1c[nH]c2cc(Br)ccc12
inactive: [1] 17.5 µM | [58] 20.2 µM | [2] 27.2 µM | [3] 18.7 µM | [4] 28.9 µM | [5] 19.8 µM | [6] 17.3 µM | [7] 17.7 µM | [8] 16.8 µM | [9] 15.5 µM | [10] 16.7 µM | [11] 20.1 µM | [12] 14.9 µM | [13] 18.2 µM | [14] 17.6 µM | [15] 18.9 µM | [16] 18.5 µM | [17] 18.3 µM | [18] 17.3 µM | [19] 17.3 µM | [20] 18.6 µM | [21] 17.6 µM | [22] 16.2 µM | [23] 18.3 µM | [24] 16 µM | [25] 17.4 µM | [26] 18.4 µM | [27] 21.2 µM | [28] 17 µM | [29] 16.9 µM | [30] 18.6 µM | [31] 62.1 µM | [32] 15.6 µM | [33] 21.8 µM | [34] 15.4 µM | [35] 32.7 µM | [36] > 100 µM | [37] 40.1 µM | [38] 18.5 µM | [39] 16.7 µM | [59] 14.9 µM | [40] 16.3 µM | [41] 17.7 µM | [44] 18 µM | [45] 17.3 µM | [46] 17.2 µM | [47] 15.8 µM | [48] 17.5 µM | [49] 19.7 µM | [50] 19.9 µM | [51] 26.9 µM | [52] 34.6 µM | [53] 16.1 µM | [54] 21.9 µM | [55] 18.6 µM | [56] 15.7 µM | [57] 29.2 µM
15.1 µM: [43]

From ChEMBL document CHEMBL1201862, “PubChem BioAssay data set” (2004)
